Source: ChEMBL document CHEMBL4428056 (J Med Chem, 2016)
Active and inactive are the calls of the source. The calls are words filed in the database; no cut-off is given here.

Experiments:
[1] = Solubility of the compound in DMSO at 100 mM; format: physicochemical; conditions: 100000 µM
Mus musculus [2] = test: Effect on inflammatory score in bleomycin-induced C57/Bl6 mouse at 1 to 3.5 mg/kg administered intratracheally as 4 doses every 48 hrs commencing on day 18 of bleomycin induction measured on day 26 post last dose by Masson's trichrome staining based assay; format: functional, organism-based
Galectin-3 [3] = molecular target: Galectin-3 (Homo sapiens, UniProt P17931, K176L); test: (§1) Competitive binding affinity to recombinant human galectin-3 K176L mutant after 5 mins in presence of fluorescent probe beta-D-galactopyranosyl(1-4)-2-acetamido-2-deoxy-beta-D-glucopyranosyl(1-3)-beta-D-galactopyranosyl(1-4)-(N1-fluorescein-5-yl-carbonylaminomethylcarbonyl)-beta-D-glucopyranosylamine by fluorescence polarization assay
Galectin-4 [4] = molecular target: T1, Galectin-4 (Homo sapiens, UniProt P56470); test: Competitive binding affinity to recombinant human galectin-4 C-terminal after 5 mins in presence of fluorescent probe 2-(fluorescein-5/6-yl-carbonyl)-aminoethyl 2-acetamido-2-deoxy-alpha-D-galactopyranosyl-(1-3)-[alpha-L-fucopyranosyl-(1-2)]-beta-D-galactopyranosyl-(1-4)-beta-D-glucopyranoside by fluorescence polarization assay
T1 sequence (P56470 whole entry): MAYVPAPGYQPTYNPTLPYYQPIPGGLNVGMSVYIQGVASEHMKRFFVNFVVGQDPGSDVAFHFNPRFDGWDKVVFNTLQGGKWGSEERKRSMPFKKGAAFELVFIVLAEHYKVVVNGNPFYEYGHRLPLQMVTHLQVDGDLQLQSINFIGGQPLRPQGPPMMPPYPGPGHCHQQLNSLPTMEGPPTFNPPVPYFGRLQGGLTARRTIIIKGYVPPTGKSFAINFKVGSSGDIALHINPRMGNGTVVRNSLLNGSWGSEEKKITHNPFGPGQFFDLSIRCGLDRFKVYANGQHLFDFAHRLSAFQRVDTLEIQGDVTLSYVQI

Mus musculus [5] = test: Anti-fibrotic activity in C57/Bl6 mouse bleomycin-induced lung fibrosis model assessed as reduction in total lung collagen levels at 0.35 to 1 mg/kg administered intratracheally as 4 doses every 48 hrs commencing on day 18 of bleomycin induction measured on day 26 post last dose; format: functional, organism-based
Galectin-3 [6] = molecular target: Galectin-3 (Homo sapiens, UniProt P17931, R186K); test: as §1, with “R186K” for “K176L”
Mus musculus [7] = test: Anti-fibrotic activity in C57/Bl6 mouse assessed as reduction in bleomycin-induced galectin-3 levels in bronchoalveolar lavage fluid at 3.5 mg/kg administered intratracheally as 4 doses every 48 hrs commencing on day 18 of bleomycin induction measured on day 26 post last dose by ELISA; format: functional; parameters: scale not given: the % may be the effect or the level left
Galectin-2 = molecular target: T2, Galectin-2 (Homo sapiens, UniProt P05162); test: Competitive binding affinity to recombinant human galectin-2 after 5 mins in presence of fluorescent probe ,[…]-3-[4-(fluorescein-5-yl-carbonylaminomethyl)-1H-1,2,3-triazol-1-yl]-3'-(3,5-dimethoxy-benzamido)-1,1'-sulfanediyl-di-beta-D-galactopyranoside by fluorescence polarization assay
T2 sequence (P05162 whole entry): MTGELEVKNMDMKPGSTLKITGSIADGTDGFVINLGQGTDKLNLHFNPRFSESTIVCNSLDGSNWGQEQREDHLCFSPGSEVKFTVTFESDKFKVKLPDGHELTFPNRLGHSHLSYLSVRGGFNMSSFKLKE

Galectin-4 [8] = molecular target: T1, Galectin-4; test: Competitive binding affinity to recombinant human galectin-4 N-terminal after 5 mins in presence of fluorescent probe 3,3'-dideoxy-3-[4-(fluorescein-5-yl-carbonylaminomethyl)-1H-1,2,3-triazol-1-yl]-3'-(3,5-dimethoxy-benzamido)-1,1'-sulfanediyl-di-beta-D-galactopyranoside by fluorescence polarization assay
Galectin-3 [9] = molecular target: Galectin-3 (Homo sapiens, UniProt P17931); test: Competitive binding affinity to recombinant human galectin-3 after 5 mins in presence of fluorescent probe by fluorescence polarization assay
Mus musculus [10] = test: (§2) Anti-fibrotic activity in C57/Bl6 mouse bleomycin-induced lung fibrosis model assessed as reduction in fibrosis score at 0.35 to 1 mg/kg administered intratracheally as 4 doses every 48 hrs commencing on day 18 of bleomycin induction measured on day 26 post last dose by Masson's trichrome staining based assay relative to control; format: functional, organism-based
Galectin-7 = molecular target: T3, Galectin-7 (Mus musculus, UniProt O54974); test: Competitive binding affinity to recombinant mouse galectin-7 after 5 mins in presence of fluorescent probe beta-D-galactopyranosyl(1-4)-2- acetamido-2-deoxy-beta-D-glucopyranosyl(1-3)-beta-D-galactopyranosyl(1-4)-(N1-fluorescein-5-yl-carbonylaminomethylcarbonyl)-beta-D-glucopyranosylamine by fluorescence polarization assay
T3 sequence (O54974 whole entry): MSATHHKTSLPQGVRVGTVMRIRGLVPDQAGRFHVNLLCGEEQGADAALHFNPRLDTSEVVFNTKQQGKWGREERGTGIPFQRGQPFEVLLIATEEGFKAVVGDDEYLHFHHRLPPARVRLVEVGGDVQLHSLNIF

Mus musculus [11] = test: Effect on inflammatory response in C57/Bl6 mouse assessed as change in bleomycin-induced total protein levels in bronchoalveolar lavage fluid at 0.35 to 3.5 mg/kg administered intratracheally as 4 doses every 48 hrs commencing on day 18 of bleomycin induction measured on day 26 post last dose; format: functional, organism-based
Galectin-3 [12] = molecular target: Galectin-3 (Homo sapiens, UniProt P17931, R144K); test: (§3) Competitive binding affinity to recombinant human galectin-3 R144K mutant after 5 mins in presence of fluorescent probe 2-(fluorescein-5/6-yl-carbonyl)-aminoethyl 2-acetamido-2-deoxy-alpha-D-galactopyranosyl-(1-3)-[alpha-L-fucopyranosyl-(1-2)]-beta-D-galactopyranosyl-(1-4)-beta-D-glucopyranoside by fluorescence polarization assay
Galectin-9 [13] = molecular target: T4, Galectin-9 (Homo sapiens, UniProt O00182); test: Competitive binding affinity to recombinant human galectin-9 N-terminal after 5 mins in presence of fluorescent probe 2-(fluorescein-5-yl-carbonylamino)ethyl-beta-D-galactopyranosyl(1-4)-2-acetamido-2-deoxy-beta-D-glucopyranosyl(1-3)-beta-D-galactopyranosyl(1-4)-beta-D-glucopyranoside by fluorescence polarization assay
Mus musculus [14] = test: Anti-fibrotic activity in C57/Bl6 mouse assessed as reduction in bleomycin-induced galectin-3 levels in serum at 0.35 to 3.5 mg/kg administered intratracheally as 4 doses every 48 hrs commencing on day 18 of bleomycin induction measured on day 26 post last dose by ELISA; format: functional, organism-based
Mus musculus [15] = test: as §2, with “3.5” for “0.35 to 1”; format: functional, organism-based
Mus musculus [16] = test: Anti-fibrotic activity in C57/Bl6 mouse bleomycin-induced lung fibrosis model assessed as reduction in total lung collagen levels at 3.5 mg/kg administered intratracheally as 4 doses every 48 hrs commencing on day 18 of bleomycin induction measured on day 26 post last dose relative to control; format: functional; parameters: scale not given: the % may be the effect or the level left
Mus musculus [17] = test: Effect on inflammatory response in C57/Bl6 mouse assessed as change in bleomycin-induced total cell counts in bronchoalveolar lavage fluid at 0.35 to 3.5 mg/kg administered intratracheally as 4 doses every 48 hrs commencing on day 18 of bleomycin induction measured on day 26 post last dose; format: functional, organism-based
Galectin-1 = Galectin-1 (Homo sapiens, UniProt P09382); test: (§4) Competitive binding affinity to recombinant human galectin-1 after 5 mins in presence of fluorescent probe 3,3'-dideoxy-3-[4-(fluorescein-5-yl-carbonylaminomethyl)-1H-1,2,3-triazol-1-yl]-3'-(3,5-dimethoxy-benzamido)-1,1'-sulfanediyl-di-beta-D-galactopyranoside by fluorescence polarization assay
Galectin-3 [18] = molecular target: Galectin-3 (Homo sapiens, UniProt P17931, R144S); test: as §3, with “R144S” for “R144K”
Galectin-3 [19] = molecular target: Galectin-3 (Homo sapiens, UniProt P17931, R186S); test: as §3, with “R186S” for “R144K”
Mus musculus [20] = test: Anti-fibrotic activity in C57/Bl6 mouse assessed as reduction in bleomycin-induced galectin-3 levels in bronchoalveolar lavage fluid at 0.35 mg/kg administered intratracheally as 4 doses every 48 hrs commencing on day 18 of bleomycin induction measured on day 26 post last dose by ELISA; format: functional; parameters: scale not given: the % may be the effect or the level left
Galectin-8 = molecular target: T5, Galectin-8 (Homo sapiens, UniProt O00214); test: Competitive binding affinity to recombinant human galectin-8 N-terminal after 5 mins in presence of fluorescent probe 2-(fluorescein-5-yl-carbonylamino)ethyl beta-D-galactopyranosyl(1-4)-2-acetamido-2-deoxy-beta-D-glucopyranosyl(1-3)-beta-D-galactopyranosyl(1-4)-beta-D-glucopyranoside by fluorescence polarization assay
T5 sequence (O00214 whole entry): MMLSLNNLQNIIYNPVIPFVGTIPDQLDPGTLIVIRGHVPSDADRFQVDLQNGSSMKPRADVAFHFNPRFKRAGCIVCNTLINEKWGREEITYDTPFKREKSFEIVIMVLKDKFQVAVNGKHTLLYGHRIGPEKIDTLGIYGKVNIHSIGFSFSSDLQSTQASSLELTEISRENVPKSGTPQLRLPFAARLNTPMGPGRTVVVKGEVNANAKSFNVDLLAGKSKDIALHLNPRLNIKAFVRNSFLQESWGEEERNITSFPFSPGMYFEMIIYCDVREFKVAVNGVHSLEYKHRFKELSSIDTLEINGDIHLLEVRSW

Galectin-9 [21] = molecular target: T4, Galectin-9; test: as §4, with “galectin-9 C-terminal” for “galectin-1”

Sequence of Galectin-3 (Homo sapiens, UniProt P17931) (P17931 whole entry): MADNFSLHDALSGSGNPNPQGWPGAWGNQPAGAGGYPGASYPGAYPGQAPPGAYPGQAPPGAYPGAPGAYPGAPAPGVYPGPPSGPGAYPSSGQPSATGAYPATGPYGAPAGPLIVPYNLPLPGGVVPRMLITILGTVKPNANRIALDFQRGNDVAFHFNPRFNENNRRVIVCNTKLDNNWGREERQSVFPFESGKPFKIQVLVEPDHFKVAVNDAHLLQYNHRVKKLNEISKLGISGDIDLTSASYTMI
T4 sequence (O00182 whole entry): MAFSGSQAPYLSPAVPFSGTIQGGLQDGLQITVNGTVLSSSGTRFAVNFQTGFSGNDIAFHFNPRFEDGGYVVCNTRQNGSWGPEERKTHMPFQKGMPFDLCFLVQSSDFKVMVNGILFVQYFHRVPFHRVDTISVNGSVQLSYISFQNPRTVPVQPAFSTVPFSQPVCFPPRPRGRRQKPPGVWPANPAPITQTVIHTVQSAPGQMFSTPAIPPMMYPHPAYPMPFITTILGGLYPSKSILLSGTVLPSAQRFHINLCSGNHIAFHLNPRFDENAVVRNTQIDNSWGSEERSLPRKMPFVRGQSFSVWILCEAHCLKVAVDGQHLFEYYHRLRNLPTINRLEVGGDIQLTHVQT
Sequence of Galectin-1 (P09382 whole entry): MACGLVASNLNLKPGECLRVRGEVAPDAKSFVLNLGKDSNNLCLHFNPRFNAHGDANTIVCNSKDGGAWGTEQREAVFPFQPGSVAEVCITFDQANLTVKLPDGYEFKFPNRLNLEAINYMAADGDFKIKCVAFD
Sequence of Galectin-3 (Homo sapiens, UniProt P17931, R186K) (P17931 2-250 R186K limits assumed): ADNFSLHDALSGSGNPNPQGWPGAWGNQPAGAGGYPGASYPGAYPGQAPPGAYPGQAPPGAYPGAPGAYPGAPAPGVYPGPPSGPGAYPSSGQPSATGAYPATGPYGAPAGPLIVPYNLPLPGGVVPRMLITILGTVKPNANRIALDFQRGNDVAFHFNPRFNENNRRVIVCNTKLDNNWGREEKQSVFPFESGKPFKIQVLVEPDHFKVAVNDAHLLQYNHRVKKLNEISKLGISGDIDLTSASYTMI
Sequence of Galectin-3 (Homo sapiens, UniProt P17931, K176L) (P17931 2-250 K176L limits assumed): as the sequence (P17931 2-250 R186K limits assumed) above, with K175L, K185R counted along it
Sequence of Galectin-3 (Homo sapiens, UniProt P17931, R144S) (P17931 2-250 R144S limits assumed): as the sequence (P17931 2-250 R186K limits assumed) above, with R143S, K185R counted along it
Sequence of Galectin-3 (Homo sapiens, UniProt P17931, R186S) (P17931 2-250 R186S limits assumed): as the sequence (P17931 2-250 R186K limits assumed) above, with K185S counted along it
Sequence of Galectin-3 (Homo sapiens, UniProt P17931, R144K) (P17931 2-250 R144K limits assumed): as the sequence (P17931 2-250 R186K limits assumed) above, with R143K, K185R counted along it

Q: Which solubility [1] does the source give for `O=c1oc2ccccc2cc1CO[C@H]1[C@@H](O)[C@@H](CO)O[C@@H](S[C@@H]2O[C@H](CO)[C@H](O)[C@H](OCc3cc4ccccc4oc3=O)[C@H]2O)[C@@H]1O` here?
A: Soluble

Q: What about the Activity (Mus musculus [2]) of the same compound?
A: inactive

Q: What about the Kd (Galectin-3 [3]) of the same compound?
A: 0.27 µM

Q: And the Kd (Galectin-4 [4])?
A: 210 µM

Q: And the Activity (Mus musculus [5])?
A: inactive

Q: What about the Kd (Galectin-3 [6]) of the same compound?
A: 110 µM

Q: What about the Activity (Mus musculus [7]) of the same compound?
A: 66%

Q: What about the Kd (Galectin-2) of the same compound?
A: 6.9 µM

Q: And the Kd (Galectin-4 [8])?
A: 41 µM

Q: And the Kd (Galectin-3 [9])?
A: 0.091 µM

Q: And the Activity (Mus musculus [10])?
A: inactive

Q: And the Kd (Galectin-7)?
A: 5 µM

Q: What about the Activity (Mus musculus [11]) of the same compound?
A: inactive

Q: And the Kd (Galectin-3 [12])?
A: 3 µM

Q: And the Kd (Galectin-9 [13])?
A: 1.6 µM

Q: And the Activity (Mus musculus [14])?
A: Active

Q: And the Activity (Mus musculus [15])?
A: Active

Q: What about the Activity (Mus musculus [16]) of the same compound?
A: 58%

Q: What about the Activity (Mus musculus [17]) of the same compound?
A: inactive

Q: What about the Kd (Galectin-1) of the same compound?
A: 16 µM

Q: And the Kd (Galectin-3 [18])?
A: 6.1 µM

Q: What about the Kd (Galectin-3 [19]) of the same compound?
A: 50 µM

Q: And the Activity (Mus musculus [20])?
A: 49%

Q: Which solubility [1] does the source give for `O=c1oc2ccc(Cl)cc2cc1CO[C@H]1[C@@H](O)[C@@H](CO)O[C@@H](S[C@@H]2O[C@H](CO)[C@H](O)[C@H](OCc3cc4cc(Cl)ccc4oc3=O)[C@H]2O)[C@@H]1O` here?
A: Soluble

Q: What about the Kd (Galectin-8) of the same compound?
A: 71 µM

Q: And the Kd (Galectin-3 [9])?
A: 1.4 µM

Q: What about the Kd (Galectin-7) of the same compound?
A: 60 µM

Q: And the Kd (Galectin-9 [13])?
A: 140 µM

Q: And the Kd (Galectin-1)?
A: 21 µM

Q: Which results are given for `COc1ccc2cc(CO[C@H]3[C@@H](O)[C@@H](CO)O[C@@H](S[C@@H]4O[C@H](CO)[C@H](O)[C@H](OCc5cc6ccc(OC)cc6oc5=O)[C@H]4O)[C@@H]3O)c(=O)oc2c1`?
A: solubility [1]: Soluble; Kd (Galectin-4 [4]): > 500 µM; Kd (Galectin-8): 84 µM; Kd (Galectin-4 [8]): 140 µM; Kd (Galectin-3 [9]): 0.19 µM; Kd (Galectin-7): 34 µM; Kd (Galectin-9 [13]): 8.3 µM; Kd (Galectin-9 [21]): 45 µM

Q: For `O=C(N[C@H]1[C@@H](O)[C@@H](CO)O[C@@H](S[C@@H]2O[C@H](CO)[C@H](O)[C@H](NC(=O)c3ccc4ccccc4c3)[C@H]2O)[C@@H]1O)c1ccc2ccccc2c1`, which Kd (Galectin-3 [9]) is on record?
A: 0.16 µM

Q: What about the Kd (Galectin-7) of the same compound?
A: 1.7 µM
